Data published in PubChem BioAssay (NCI).
Values joined by “and” are separate entries in the source; they are usually repeats but may differ in a detail not shown here. Equal values may be shown once.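 Following 48 hours of exposure in 96-well plates, responses at five concentrations were used to interpolate endpoints linearly. Here, GI50 denotes the concentration required for 50% inhibition of growth. The concentration for full growth arrest is given as TGI.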

Legend:
Test in all cases: inhibition of tumour cell growth, NCI panel, 48 h
[1] = system: HCT-116 colon
[2] = system: RXF 393 renal
[3] = system: CCRF-CEM leukemia
[4] = system: EKVX NSCLC
[5] = system: OVCAR-3 ovarian
[6] = system: TK-10 renal
[7] = system: PC-3 prostate
[8] = system: MCF7 breast
[9] = system: HOP-92 NSCLC
[10] = system: T-47D breast

Compound | TGI [1] | TGI [2] | TGI [3] | TGI [4] | TGI [5] | TGI [6] [µM] | GI50 [1] | GI50 [7] | TGI [7] | GI50 [6] [µM] | GI50 [2] | GI50 [8] | TGI [8] | GI50 [9] | TGI [9] | GI50 [3] | GI50 [10] | TGI [10] | GI50 [4] | GI50 [5]
COc1ccc2c(c1OCC(=O)O)C(=O)C(CCC(=O)O)CC2 (stereo not given) | > 100 µM | > 100 µM | > 100 µM | > 100 µM | > 100 µM |  |  |  |  |  |  |  |  |  |  |  |  |  |  | 
Cc1cc2c(=O)c3ccccc3[nH]c2c(C(N)=O)c1C | > 100 µM | > 100 µM | > 100 µM | > 100 µM | > 100 µM | > 100 |  |  |  |  |  |  |  |  |  |  |  |  |  | 
O=C(Nc1cccc(C(F)(F)F)c1)c1ccc(NC2=C(Cl)C(=O)N(Cc3ccc(Cl)cc3Cl)C2=O)cc1 | 18.6 µM | 28.3 µM | 5.46 µM | 48.6 µM | 30.9 µM | 35.7 | 5.99 µM | 4.64 µM | 15.2 µM | 15.6 | 4.76 µM | 2.15 µM | 4.71 µM | 4.71 µM | 16.2 µM | 2.27 µM | 2.8 µM | > 100 µM | 20.3 µM | 15.3 µM
CCC(C)(C)c1ccc(OCCCCNC(=O)c2ccc3ccccc3c2O)c(C(C)(C)CC)c1 | > 100 µM |  | > 100 µM | 87.9 µM | 73.2 µM | 80 |  |  | 49.7 µM |  |  |  | > 100 µM |  |  |  |  | > 100 µM |  | 
O=C1CCC2(c3ccc(Cl)cc3)Nc3cc(Cl)ccc3N12 (stereo not given) | 19.5 µM | 24.6 µM | 10.7 µM | 29.1 µM | 22.4 µM |  |  |  |  |  |  |  |  |  |  |  |  |  |  | 
CCCCCCCCCCCCCCCC(=O)OCCOCCOCCOCc1ccccc1 | > 100 µM | > 100 µM |  | > 100 µM | > 100 µM | > 100 |  |  |  |  |  |  |  |  | 69.4 µM |  |  |  |  | 
COc1ccc(C(=O)Nc2ccc(O)c(=O)cc2)cc1 | > 100 µM | 37.3 µM | 72.1 µM | 59 µM | 90 µM | > 100 |  |  | > 100 µM |  |  |  | 65 µM |  |  |  |  |  |  | 
COC1C(OC(=S)Nc2ccccc2)c2ccccc2N1C(C)=O (stereo not given) | > 100 µM | > 100 µM | > 100 µM | > 100 µM | > 100 µM |  |  |  |  |  |  |  |  |  | 92.2 µM |  |  |  |  | 
CC(C)(C)c1cc(C(P(=O)(O)O)P(=O)(O)O)cc(C(C)(C)C)c1O | > 100 µM |  | > 100 µM | > 100 µM | > 100 µM | > 100 |  |  |  |  |  |  |  |  | > 100 µM |  |  |  |  | 
COc1cc(Cl)cc(-c2nn(-c3cccc(NC(=O)c4ccc(N5CCOCC5)c(C(F)(F)F)c4)c3)cc2-c2ccncc2)c1 | > 100 µM | 23.9 µM | > 100 µM |  | > 100 µM |  | 9.64 µM | 3.3 µM | > 100 µM |  | 0.83 µM | 8.71 µM | > 100 µM |  |  | 3.88 µM | 10.4 µM | > 100 µM |  | 53.1 µM
N=c1c2c(-c3ccccc3)c(-c3ccccc3)n(Cc3ccccc3)c2ncn1C1CCC(O)CC1 (stereo not given) | 1.75 µM | 2.4 µM | 9.25 µM |  | 5.63 µM | 8.96 | 0.0446 µM | 0.466 µM | 5.08 µM | 0.814 | 0.374 µM | 0.278 µM | 2.36 µM | 0.24 µM | 4.33 µM | 0.321 µM | 0.911 µM | 18.3 µM |  | 0.488 µM
CCOC(=O)N[C@H]1CCc2cc(OC)c(OC)c(OC)c2-c2ccc(SC)c(=O)cc21 | 6.09 µM and > 39 µM | > 100 µM | > 100 µM | > 100 µM |  | > 100 |  |  | > 100 µM | 7.23 |  |  | > 100 µM | 0.0198 µM | > 100 µM |  |  | > 100 µM | < 0.01 µM | 
CN1CCC(=O)/C(=C/c2ccccc2)C1 | 3.25 µM | 26.8 µM | 50.7 µM | 40.5 µM | 26.2 µM | 29.6 |  |  |  |  |  |  |  |  | 31.9 µM |  |  |  |  | 
COc1cc(C(=O)N2CCN(C(=O)c3cc(OC)c(OC)c(OC)c3)C2=S)cc(OC)c1OC | 33.1 µM | 28.1 µM | 34.1 µM |  | 29.6 µM | 37.3 | 18.2 µM | 15 µM | 32.2 µM | 17 | 14.3 µM | 5.23 µM | 27.6 µM | 16.1 µM | 34.3 µM | 12.2 µM | 13.1 µM | 40.3 µM |  | 15.2 µM
O=C1N=C2Sc3ccc4ccccc4c3N2C1=O | 32.9 µM | 37 µM | > 100 µM | 47.9 µM | 37.1 µM | 81.6 |  |  |  |  |  |  |  |  | 30.6 µM |  |  |  |  | 
CC12CCC(=O)C[C@H]1CCC(OC=O)C2Br (stereo not given in full) | > 100 µM |  | > 100 µM |  | > 100 µM | > 100 |  |  |  |  |  |  |  |  | > 100 µM |  |  |  |  | 
COC(=O)/C(C#N)=C1\N=NNN1c1ccc(OC)cc1 | > 100 µM | > 100 µM | > 100 µM | > 100 µM | > 100 µM | > 100 |  |  |  |  |  |  |  |  | > 100 µM |  |  |  |  | 
COc1cc(N(CCC#N)CCC#N)ccc1/C(N=Nc1ccc(Cl)cc1)=N/NC(=O)c1cc(Br)ccc1O | > 150 µg/mL | > 150 µg/mL | > 150 µg/mL | > 150 µg/mL | > 150 µg/mL |  | 53.2 µg/mL | 64.1 µg/mL | > 150 µg/mL |  | 36.9 µg/mL | 44.1 µg/mL | > 150 µg/mL | > 150 µg/mL | > 150 µg/mL | 74 µg/mL | 69.9 µg/mL | > 150 µg/mL | 72.4 µg/mL | 50 µg/mL
C/C(CC(=O)Nc1ccc(C)c(C)c1)=N\N(c1ccccc1)c1ccccc1 | > 100 µM | > 100 µM | 64.4 µM | > 100 µM | > 100 µM | > 100 |  |  |  |  |  |  |  |  | > 100 µM |  |  |  |  | 
COCC(OC)C(CC=C(C#N)C#N)OC (stereo not given) | > 100 µM |  | > 100 µM | > 100 µM | > 100 µM | > 100 |  |  |  |  |  |  |  |  | > 100 µM |  |  |  |  | 
CC1(C)COC(c2cccc3c2C(=O)c2cccc(Cl)c2-3)=N1 |  | 68.2 µM | > 100 µM | > 100 µM | > 100 µM | > 100 |  |  |  |  |  |  |  |  |  |  |  |  |  | 
COC(=O)/C(=C/c1ccc(OC)cc1)C(C(=O)O)=C1CCCC1 | > 100 µM | > 100 µM | > 100 µM | > 100 µM |  | > 100 |  |  |  |  |  |  |  |  | > 100 µM |  |  |  |  | 
